Assays:
[1] = molecular target: T1, Tyrosine-protein phosphatase non-receptor type 2 (Homo sapiens, UniProt P17706); test: Inhibition of TCPTP by pNPP assay
T1 sequence (P17706 whole entry): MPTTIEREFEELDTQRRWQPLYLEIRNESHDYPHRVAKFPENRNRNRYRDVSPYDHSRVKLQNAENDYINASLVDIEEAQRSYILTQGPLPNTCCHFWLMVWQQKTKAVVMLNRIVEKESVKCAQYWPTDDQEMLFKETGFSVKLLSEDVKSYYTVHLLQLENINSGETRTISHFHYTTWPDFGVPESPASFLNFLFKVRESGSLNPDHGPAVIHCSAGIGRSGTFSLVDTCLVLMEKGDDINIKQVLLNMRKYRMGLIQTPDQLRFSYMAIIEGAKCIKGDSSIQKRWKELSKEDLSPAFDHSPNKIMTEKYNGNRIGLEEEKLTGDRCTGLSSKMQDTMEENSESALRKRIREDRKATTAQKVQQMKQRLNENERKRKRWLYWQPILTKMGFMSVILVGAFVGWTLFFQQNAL

[2] = molecular target: T2, Tyrosine-protein phosphatase non-receptor type 1 (Homo sapiens, UniProt P18031); test: Inhibition of PTP1B by pNPP assay
T2 sequence (P18031 whole entry): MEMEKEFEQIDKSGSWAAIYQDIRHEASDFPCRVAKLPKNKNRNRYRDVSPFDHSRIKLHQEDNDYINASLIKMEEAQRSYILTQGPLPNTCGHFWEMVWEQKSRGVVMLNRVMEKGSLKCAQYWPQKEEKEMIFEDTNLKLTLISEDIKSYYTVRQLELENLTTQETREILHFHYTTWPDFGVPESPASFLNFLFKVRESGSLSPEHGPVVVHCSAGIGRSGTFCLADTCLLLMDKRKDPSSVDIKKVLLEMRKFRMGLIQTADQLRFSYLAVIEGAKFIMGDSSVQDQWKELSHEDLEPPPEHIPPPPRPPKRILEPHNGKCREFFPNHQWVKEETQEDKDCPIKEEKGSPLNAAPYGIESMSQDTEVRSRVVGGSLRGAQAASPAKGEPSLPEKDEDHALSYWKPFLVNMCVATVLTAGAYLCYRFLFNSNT

| Compound | IC50 [1] [µM] | IC50 [2] [µM] |
| --- | --- | --- |
| CC1(C)CC[C@]2(C(=O)O)CC[C@]3(C)C(=CC[C@@H]4[C@@]5(C)CC[C@H](OCc6cccc(C(=O)O)c6)C(C)(C)[C@@H]5CC[C@]43C)[C@@H]2C1 | 0.49 | 0.62 |
| CC1(C)CC[C@]2(CCCCC(=O)NC(Cc3ccc(F)cc3)C(=O)O)CC[C@]3(C)C(=CC[C@@H]4[C@@]5(C)CC[C@H](O)C(C)(C)[C@@H]5CC[C@]43C)[C@@H]2C1 (some centres undefined) | 0.65 | 0.57 |
| CC1(C)CC[C@]2(CCCCCCCCCCC(=O)O)CC[C@]3(C)C(=CC[C@@H]4[C@@]5(C)CC[C@H](O)C(C)(C)[C@@H]5CC[C@]43C)[C@@H]2C1 | 0.63 | 0.72 |
| CC1(C)CC[C@]2(C(=O)N[C@@H](CCC(=O)O)C(=O)O)CC[C@]3(C)C(=CC[C@@H]4[C@@]5(C)CC[C@H](O)C(C)(C)[C@@H]5CC[C@]43C)[C@@H]2C1 |  | 16.4 |
| CC1(C)CC[C@]2(CCCCC(=O)N[C@@H](Cc3c[nH]c4ccccc34)C(=O)O)CC[C@]3(C)C(=CC[C@@H]4[C@@]5(C)CC[C@H](O)C(C)(C)[C@@H]5CC[C@]43C)[C@@H]2C1 | 0.59 | 0.59 |
| CC1(C)CC[C@]2(CCCCC(=O)N[C@@H](Cc3cnc[nH]3)C(=O)O)CC[C@]3(C)C(=CC[C@@H]4[C@@]5(C)CC[C@H](O)C(C)(C)[C@@H]5CC[C@]43C)[C@@H]2C1 | 4.31 | 4.62 |
| CC1(C)CC[C@]2(CCCCC(=O)N[C@H](Cc3ccccc3)C(=O)O)CC[C@]3(C)C(=CC[C@@H]4[C@@]5(C)CC[C@H](O)C(C)(C)[C@@H]5CC[C@]43C)[C@@H]2C1 | 0.68 | 0.74 |
| CC1(C)CC[C@]2(C(=O)O)CC[C@]3(C)C(=CC[C@@H]4[C@@]5(C)CC[C@H](OC(=O)c6ccccc6C(=O)O)C(C)(C)[C@@H]5CC[C@]43C)[C@@H]2C1 | 5 | 4.58 |
| CC1(C)CC[C@]2(C(=O)NCc3ccccc3)CC[C@]3(C)C(=CC[C@@H]4[C@@]5(C)CC[C@H](O)C(C)(C)[C@@H]5CC[C@]43C)[C@@H]2C1 |  | 8.1 |
| CC1(C)CC[C@]2(C(=O)O)CC[C@]3(C)C(=CC[C@@H]4[C@@]5(C)CC[C@H](OC(=O)CCC(=O)O)C(C)(C)[C@@H]5CC[C@]43C)[C@@H]2C1 [OLEANOLIC ACID 3-O-SUCCINATE] | 5.36 | 5.97 |
| COc1cccc(CC(NC(=O)CCCC[C@]23CCC(C)(C)C[C@H]2C2=CC[C@@H]4[C@@]5(C)CC[C@H](O)C(C)(C)[C@@H]5CC[C@@]4(C)[C@]2(C)CC3)C(=O)O)c1OC (some centres undefined) | 0.75 | 0.66 |
| COC(=O)[C@]12CCC(C)(C)C[C@H]1C1=CC[C@@H]3[C@@]4(C)CC[C@H](O)C(C)(C)[C@@H]4CC[C@@]3(C)[C@]1(C)CC2 [METHYL OLEANOLATE] |  | 4.44 |
| Cc1ccccc1CC(NC(=O)CCCC[C@]12CCC(C)(C)C[C@H]1C1=CC[C@@H]3[C@@]4(C)CC[C@H](O)C(C)(C)[C@@H]4CC[C@@]3(C)[C@]1(C)CC2)C(=O)O (some centres undefined) | 0.5 | 0.55 |
| CC1(C)CC[C@]2(C(N)=O)CC[C@]3(C)C(=CC[C@@H]4[C@@]5(C)CC[C@H](O)C(C)(C)[C@@H]5CC[C@]43C)[C@@H]2C1 |  | 4.76 |
| CC1(C)CC[C@]2(C(=O)NCC(=O)O)CC[C@]3(C)C(=CC[C@@H]4[C@@]5(C)CC[C@H](O)C(C)(C)[C@@H]5CC[C@]43C)[C@@H]2C1 |  | 15.4 |
| CC1(C)CC[C@]2(C(=O)Nc3ccc(C(=O)O)cc3)CC[C@]3(C)C(=CC[C@@H]4[C@@]5(C)CC[C@H](O)C(C)(C)[C@@H]5CC[C@]43C)[C@@H]2C1 |  | 3.19 |
| CNC(=O)[C@]12CCC(C)(C)C[C@H]1C1=CC[C@@H]3[C@@]4(C)CC[C@H](O)C(C)(C)[C@@H]4CC[C@@]3(C)[C@]1(C)CC2 |  | 9.2 |
| CC1(C)CC[C@]2(C(=O)OCc3ccccc3)CC[C@]3(C)C(=CC[C@@H]4[C@@]5(C)CC[C@H](O)C(C)(C)[C@@H]5CC[C@]43C)[C@@H]2C1 |  | 8.61 |
| CC1(C)[C@@H](O)CC[C@]2(C)[C@H]3C(=O)C=C4[C@@H]5C[C@@](C)(C(=O)O)CC[C@]5(C)CC[C@@]4(C)[C@]3(C)CC[C@@H]12 [ENOXOLONE] | > 20 |  |
